Laboratory results published in patent publication US9096605B2, “Pyrazolopyrimidine derivatives as PI3 kinase inhibitors” (GlaxoSmithKline LLC, priority 2011, dated 2015).

What was measured:
[1] = tested on: pAKT(Ser473) in MDA-MB-468 cells; assay: pAKT(Ser473) assay in MDA-MB-468 cells; assay type: cell-based; settings: Homo sapiens, 0.5 h, compound treatment 30 minutes, MSD ELISA phospho AKT(Ser473), given as ranges, read-out: Cell Activity—pAKT IC50 in MDA-MB-468
Method: pAKT(Ser473) Assay in MDA-MB-468 Cells
MDA-MB-468 cells were plated in 384-well flat clear bottom tissue culture plates (Corning #3701) at a density of 5000 cells per 0.057 cm2 in 48 ul of RPMI 1640 media supplemented with 10% fetal bovine serum (FBS). Cells were seeded with a Wellmate liquid handler (Matrix). Columns 1 through 23 were plated with cells and column 24 contained media alone. Cells were incubated at 37° C. with 5% CO2 for approximately 16-20 hours. Duplicate compound plates were prepared in 384-well polypropylene V-Bottom plates (Greiner #781280).
Compound titrations were made across the columns (A1-A20). 20 ul of compound was added to the first column and diluted into a 20 point curve with dimethylsulfoxide (DMSO, Thermo #TS2064) using a 2-fold dilution factor with a liquid handling robot (Hamilton). Columns 22 through 24 contained DMSO alone. Titrations were diluted 682-fold for compound treatment with 4 ul of compound added to 105 ul of RPMI media. Two ul of the diluted compound was added to the cell plates containing 48 ul of media using a multimek robot (Beckman Coulter). Final DMSO concentrations were 0.15%. Cells were treated with compound for 30 minutes at 37° C. with 5% CO2.
Following incubation, media was aspirated from dosed cell plates using an ELx405 plate washer (Bio-Tek) and 25 ul of 4° C. Meso Scale Discovery (MSD) lysis buffer with the addition of protease and phosphatase inhibitors (supplied in MSD kit #N31CB-1) was added to each well using a multidrop combi (Thermo). Precoated 4-spot per well MSD ELISA plates coated with total and phospho AKT(Ser473) antibody and BSA (supplied in kit) were blocked for 1 hour at room temperature with 35 ul per well of 1× MSD wash buffer+3% BSA (supplied in kit).
Blocked plates were washed 4 times with 100 ul per well of 1× Tris wash buffer (supplied in MSD kit) using an Elx405 plate washer (Bio-Tek). To each well, 20 ul of cell lysate was added using a multimek robot (Beckman Coulter) and the plate incubated at 4° C. overnight (˜12-24 hours). Following incubation, the ELISA plates were washed 4 times (100 ul/well) with 1× Tris wash buffer. Twenty microliters per well of 1× detection antibody (supplied in MSD kit) was added using a multidrop combi (Thermo), followed by a 2 hour incubation at room temperature. Detection antibody was aspirated and the plates washed 4 times (100 ul/well) with 1× Tris wash buffer. Read Buffer (supplied in MSD kit) was added at 1× (35 ul/well) at room temperature using a multidrop (Thermo). Relative luminescence units (RLU) were determined using a SECTOR™ Imager 6000 with MSD Workbench Software.
Concentration Response Curves for pAKT(Ser473):
For analysis of the pAKT(Ser473) concentration response curves, the data was normalized using Phospho AKT values divided by the sum of corresponding Total AKT and Phospho AKT values. The normalized values are plotted as the percent of the DMSO-treated control values on the corresponding plate. To determine IC50 values, the data is fit to a 4 parameter nonlinear sigmoidal dose response (variable slope) using GraphPad Prism version 4 for Windows, (GraphPad Software, San Diego Calif. USA). Criteria for curve fitting and IC50 determination include that the IC50 values from duplicate runs must be within 2 to 3-fold of each other, the Y min must be less than or equal to 30% of the DMSO-treated control and the Y max must range between 80-120%. Any data point equal to or greater than 40% of the curve was not utilized.

PI3K-beta = biological target: T1, PI3K-beta (Homo sapiens, UniProt P42338); assay: HTRF in vitro profiling assay for PI3K inhibition (beta isoform); assay type: biochemical; settings: PI3K-beta enzyme pIC50 range, 200 pM enzyme, 100 uM ATP, 10 uM PIP2, 150 mM NaCl, corrected pIC50, read-out: PI3K-b Enz Activity
T1 construct: made in house
Excerpt: HTRF In Vitro Profiling Assays for PI3K Inhibition
The PI3-Kinase profiling assays were developed to measure the compound-dependent inhibition of the alpha, beta, delta, and gamma isoforms of PI3K in an in vitro catalytic assay. This assay was developed and optimized from a kit produced by Upstate (Millipore catalog #33-017). Briefly, this procedure utilizes a pre-formed HTRF (Homogeneous Time-Resolved Fluorescence energy transfer) complex between four binding partners: 1) biotinylated PIP3, 2) GST tagged pleckstrin homology (PH) domain, 3) Europium labeled anti-GST monoclonal antibody, and 4) Streptavidin-Allophycocyanin (APC). The native PIP3 produced by PI 3-Kinase activity displaces biotin-PIP3 from the PH domain, resulting in the dissociation of the HTRF complex and a decrease in the fluorescence signal. The format of this assay is the same for all 4 isoforms of PI3K; the differences lie in the concentration of enzyme used to achieve the most robust signal. The alpha and delta assays are run at 400 pM enzyme; the beta assay is at 200 pM enzyme and the gamma assay is run at 1 nM enzyme. In addition, the alpha, beta and delta assays are run with 150 mM NaCl while the gamma assay is run in the absence of NaCl. The ATP concentration is 100 uM in the alpha, beta, and delta assays and 15 uM ATP in the gamma assay. All reactions are run at 10 uM PIP2
Compounds are serially diluted (3-fold in 100% DMSO) across a 384-well polypropylene mother plate from column 1 to column 12 and column 13 to column 24, to yield 11 concentrations for each test compound. Columns 6 and 18 contain only DMSO. Once titrations are made, […] is transferred to a 384-well low-volume assay plate (Greiner 784076). This assay plate contains three pharmacological controls (known PI3K inhibitors) and 3 assay controls: (1) Enzyme without inhibitor; (2) Buffer minus enzyme, and (3) Buffer minus enzyme plus native PIP3. DMSO is stamped into all wells of columns 6 and 18. PIP3 is added at 40 μM in 1× Reaction buffer (1 μL of 200 μM PIP3) to alternating rows of column 18 (wells 18 B, D, F, H, J, L, N, P). The no-enzyme control reactions are run in wells 18 A, C, E, G, I, K, M, O (0.1 μL of 100% DMSO).
The PI3-Kinase profiling assay was optimized using the HTRF kit provided by Upstate (Millipore). The assay kit contains seven reagents: 1) 4× Reaction Buffer; 2) native PIP2 (substrate); 3) Stop A (EDTA); 4) Stop B (Biotin-PIP3); 5) Detection Mix A (Streptavidin-APC); 6) Detection Mix B (Eu-labeled Anti-GST plus GST-tagged PH-domain); 7) Detection Mix C (KF). In addition, the following items were obtained or purchased: PI3Kinase (prepared by GSK BR&AD), dithiothreitol (Sigma, D-5545), Adenosine-5′-triphosphate (ATP, Teknova cat. # A0220), native PIP3 (1,2-dioctanoyl-sn-glycero-3-[phosphoinositil-3,4,5-triphosphate]tetraammonium salt (Avanti polar lipids, 850186P), DMSO (Sigma, 472301).
PI3Kinase Reaction Buffer is prepared by diluting the stock 1:4 with de-ionized water. Freshly prepared DTT is added at a final concentration of 5 mM on the day of use. Enzyme addition and compound pre-incubation are initiated by the addition of 2.5 μL of PI3K (at twice its final concentration) in 1× reaction buffer to all wells using a Multidrop Combi. Plates are incubated at room temperature for 15 minutes. Reactions are initiated by addition of 2.5 μL of 2× substrate solution (PIP2 and ATP in 1× reaction buffer) using a Multidrop Combi. Plates are incubated at room temperature for one hour. Reactions are quenched by the addition of 2.5 μL of stop solution (Stop A and Stop B pre-mixed at a ratio of 5:1, respectively) to all wells using the Multidrop Combi. […]

T1 sequence (P42338 whole entry, canonical isoform): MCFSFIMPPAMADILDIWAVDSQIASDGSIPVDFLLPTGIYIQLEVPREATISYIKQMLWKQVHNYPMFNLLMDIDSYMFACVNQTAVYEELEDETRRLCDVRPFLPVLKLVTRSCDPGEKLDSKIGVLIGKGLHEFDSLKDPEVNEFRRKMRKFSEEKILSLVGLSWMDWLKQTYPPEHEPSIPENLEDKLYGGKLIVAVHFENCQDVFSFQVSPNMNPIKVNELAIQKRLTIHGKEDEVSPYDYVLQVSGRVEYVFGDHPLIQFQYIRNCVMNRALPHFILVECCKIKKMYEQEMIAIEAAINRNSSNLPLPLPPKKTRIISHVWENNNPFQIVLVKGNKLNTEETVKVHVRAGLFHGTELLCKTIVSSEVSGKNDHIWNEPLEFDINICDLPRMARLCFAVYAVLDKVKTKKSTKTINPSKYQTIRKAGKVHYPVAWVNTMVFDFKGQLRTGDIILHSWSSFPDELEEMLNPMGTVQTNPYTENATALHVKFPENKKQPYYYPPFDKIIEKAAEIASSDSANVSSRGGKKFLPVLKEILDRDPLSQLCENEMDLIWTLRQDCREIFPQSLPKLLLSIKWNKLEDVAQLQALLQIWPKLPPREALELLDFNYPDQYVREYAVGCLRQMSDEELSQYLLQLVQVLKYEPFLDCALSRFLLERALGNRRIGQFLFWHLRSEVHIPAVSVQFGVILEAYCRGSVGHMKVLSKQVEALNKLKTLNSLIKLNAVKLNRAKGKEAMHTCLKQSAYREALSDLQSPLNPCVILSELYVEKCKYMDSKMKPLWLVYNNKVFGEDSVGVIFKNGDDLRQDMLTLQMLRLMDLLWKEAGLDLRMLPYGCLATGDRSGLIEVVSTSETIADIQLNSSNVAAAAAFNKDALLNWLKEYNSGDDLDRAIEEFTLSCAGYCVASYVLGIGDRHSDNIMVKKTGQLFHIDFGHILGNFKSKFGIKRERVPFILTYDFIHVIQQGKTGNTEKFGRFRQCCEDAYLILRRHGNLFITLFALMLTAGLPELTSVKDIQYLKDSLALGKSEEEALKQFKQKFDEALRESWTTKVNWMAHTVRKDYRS
T1 sequence (P27986 whole entry partner, canonical isoform): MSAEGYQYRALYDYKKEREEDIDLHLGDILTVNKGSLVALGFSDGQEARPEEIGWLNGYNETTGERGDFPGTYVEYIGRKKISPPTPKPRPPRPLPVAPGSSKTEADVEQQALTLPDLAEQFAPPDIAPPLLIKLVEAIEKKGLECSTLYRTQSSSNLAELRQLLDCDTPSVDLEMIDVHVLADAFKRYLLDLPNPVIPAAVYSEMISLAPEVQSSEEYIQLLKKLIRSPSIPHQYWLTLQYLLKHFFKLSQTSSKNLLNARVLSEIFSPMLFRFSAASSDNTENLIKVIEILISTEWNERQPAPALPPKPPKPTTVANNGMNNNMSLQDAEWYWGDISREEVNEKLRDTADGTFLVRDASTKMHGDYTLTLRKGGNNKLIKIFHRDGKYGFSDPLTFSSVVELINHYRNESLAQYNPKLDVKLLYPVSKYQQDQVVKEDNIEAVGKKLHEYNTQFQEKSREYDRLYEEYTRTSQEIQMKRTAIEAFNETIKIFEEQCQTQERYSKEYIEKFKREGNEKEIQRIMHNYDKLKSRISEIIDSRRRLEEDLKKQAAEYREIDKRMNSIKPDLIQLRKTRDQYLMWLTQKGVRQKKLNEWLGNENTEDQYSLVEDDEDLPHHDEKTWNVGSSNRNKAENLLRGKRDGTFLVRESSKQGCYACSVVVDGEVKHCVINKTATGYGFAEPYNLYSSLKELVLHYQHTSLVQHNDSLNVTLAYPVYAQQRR

| Compound | IC50 [1] | IC50 (PI3K-beta) |
| --- | --- | --- |
| Cc1c(Cc2cccc(Cl)c2Cl)c2nc(-c3ccncc3)cc(=O)n2n1C [Example 33, 3-(2,3-dichlorobenzyl)-1,2-dimethyl-5-(pyridin-4-yl)pyrazolo[1,5-a]pyrimidin-7(1H)-one] | > 20000 nM | 126 to 1260 nM |
| COc1nn2c(O)cc(-c3ccncc3)nc2c1Cc1cccc(Cl)c1Cl [Example 35, 3-(2,3-dichlorobenzyl)-2-methoxy-5-(pyridin-4-yl)pyrazolo[1,5-a]pyrimidin-7-ol] | 11000 to 20000 nM | 1.26 to 10 nM |
| Cc1nn2c(C(=O)O)cc(N3CCOCC3)nc2c1Cc1cccc(C(F)(F)F)c1C [Example 36, 2-methyl-3-(2-methyl-3-(trifluoromethyl)benzyl)-5-morpholinopyrazolo[1,5-a]pyrimidine-7-carboxylic acid] | 1000 to 5000 nM | 1.26 to 10 nM |
| Cc1nn2c(C(=O)O)cc(N3CCOCC3)nc2c1Cc1cccc2ccccc12 [Example 37, 2-methyl-5-morpholino-3-(naphthalen-1-ylmethyl)pyrazolo[1,5-a]pyrimidine-7-carboxylic acid] | 1000 to 5000 nM | 12.6 to 100 nM |
| Cc1nn2c(C(N)=O)cc(N3CCOCC3)nc2c1Cc1cccc2ccccc12 [Example 38, 2-methyl-5-morpholino-3-(naphthalen-1-ylmethyl)pyrazolo[1,5-a]pyrimidine-7-carboxamide] | < 1000 nM | 12.6 to 100 nM |
| Cc1nn2c(C(N)=O)cc(N3CCOCC3)nc2c1Cc1cccc(C(F)(F)F)c1C [Example 39, 2-methyl-3-(2-methyl-3-(trifluoromethyl)benzyl)-5-morpholinopyrazolo[1,5-a]pyrimidine-7-carboxamide] | > 20000 nM | 12.6 to 100 nM |
| Cc1nn2c(-c3nc[nH]n3)cc(N3CCOCC3)nc2c1Cc1cccc2ccccc12 [Example 40, 4-(2-methyl-3-(naphthalen-1-ylmethyl)-7-(1H-1,2,4-triazol-3-yl)pyrazolo[1,5-a]pyrimidin-5-yl)morpholine] | < 1000 nM | 1.26 to 10 nM |
| Cc1nn2c(-c3nc[nH]n3)cc(N3CCOCC3)nc2c1Cc1cccc(C(F)(F)F)c1C [Example 41, 4-(2-methyl-3-(2-methyl-3-(trifluoromethyl)benzyl)-7-(1H-1,2,4-triazol-3-yl)pyrazolo[1,5-a]pyrimidin-5-yl)morpholine] | 6000 to 10000 nM | 1.26 to 10 nM |
| Cc1nn2c(-c3cc[nH]n3)cc(N3CCOCC3)nc2c1Cc1cccc2ccccc12 [Example 42, 4-(2-methyl-3-(naphthalen-1-ylmethyl)-7-(1H-pyrazol-3-yl)pyrazolo[1,5-a]pyrimidin-5-yl)morpholine] | < 1000 nM | 1.26 to 10 nM |
| Cc1nn2c(-c3ncc[nH]3)cc(N3CCOCC3)nc2c1Cc1cccc2ccccc12 [Example 43, 4-(7-(1H-imidazol-2-yl)-2-methyl-3-(naphthalen-1-ylmethyl)pyrazolo[1,5-a]pyrimidin-5-yl)morpholine] | < 1000 nM | 1.26 to 10 nM |
| Cc1nn2c(C#N)cc(N3CCOCC3)nc2c1Cc1cccc(C(F)(F)F)c1C [Example 45, 2-methyl-3-(2-methyl-3-(trifluoromethyl)benzyl)-5-morpholinopyrazolo[1,5-a]pyrimidine-7-carbonitrile] | > 20000 nM | 126 to 1260 nM |
| Cc1nn2c(-c3nn[nH]n3)cc(N3CCOCC3)nc2c1Cc1cccc(C(F)(F)F)c1C [Example 46, 4-(2-methyl-3-(2-methyl-3-(trifluoromethyl)benzyl)-7-(2H-tetrazol-5-yl)pyrazolo[1,5-a]pyrimidin-5-yl)morpholine] | 1000 to 5000 nM | 12.6 to 100 nM |
| Cc1nn2c(-c3nn[nH]n3)cc(N3CCOCC3)nc2c1Cc1cccc2ccccc12 [Example 47, 4-(2-methyl-3-(naphthalen-1-ylmethyl)-7-(1H-tetrazol-5-yl)pyrazolo[1,5-a]pyrimidin-5-yl)morpholine] | 1000 to 5000 nM | 12.6 to 100 nM |
| Cc1c(Cc2cnn3c(-c4cn[nH]c4)cc(N4CCOCC4)nc23)cccc1C(F)(F)F [Example 48, 4-(3-(2-methyl-3-(trifluoromethyl)benzyl)-7-(1H-pyrazol-4-yl)pyrazolo[1,5-a]pyrimidin-5-yl)morpholine] | > 20000 nM | 126 to 1260 nM |
| Cn1c(=O)c(Cc2cccc(Cl)c2Cl)c2nc(-c3ccncc3)cc(O)n21 [Example 50, 3-(2,3-dichlorobenzyl)-7-hydroxy-1-methyl-5-(pyridin-4-yl)pyrazolo[1,5-a]pyrimidin-2(1H)-one] | 6000 to 10000 nM | 12.6 to 100 nM |
